Key:
Assay type in all cases: biochemical
adenosine A2B receptor = adenosine A2B receptor (Homo sapiens (Human), UniProt P29275); assay: Adenosine receptor activity assay (Table 1), A2B activity; conditions: for Ratio: A2A activity to the A2B activity, A2A/A2B; for IC50: read-out: Ave A2B cAMP IC50
adenosine A1 receptor = adenosine A1 receptor (Homo sapiens (Human), UniProt P30542); assay: Adenosine receptor activity assay (Table 1), A1 cAMP
Protocol: (§1) Table 1. Compounds (e.g., Adenosine Receptor modulators) and activity assay results. The legend is as follows: A=<10 nM; B=10-50 nM; C=50-100 nM; D=100-500; and E=>500 nM. The ratio corresponds to the A2A activity to the A2B activity; or A2A/A2B.

adenosine A3 receptor = adenosine A3 receptor (Homo sapiens (Human), UniProt P0DMS8); assay: Adenosine receptor activity assay (Table 1), A3 cAMP
Protocol: as §1

adenosine A2A receptor = adenosine A2A receptor (Homo sapiens (Human), UniProt P29274); assay: Adenosine receptor activity assay (Table 1), A2A activity; conditions: read-out: Ave A2A cAMP IC50
Sequence of adenosine A2A receptor (P29274 whole entry): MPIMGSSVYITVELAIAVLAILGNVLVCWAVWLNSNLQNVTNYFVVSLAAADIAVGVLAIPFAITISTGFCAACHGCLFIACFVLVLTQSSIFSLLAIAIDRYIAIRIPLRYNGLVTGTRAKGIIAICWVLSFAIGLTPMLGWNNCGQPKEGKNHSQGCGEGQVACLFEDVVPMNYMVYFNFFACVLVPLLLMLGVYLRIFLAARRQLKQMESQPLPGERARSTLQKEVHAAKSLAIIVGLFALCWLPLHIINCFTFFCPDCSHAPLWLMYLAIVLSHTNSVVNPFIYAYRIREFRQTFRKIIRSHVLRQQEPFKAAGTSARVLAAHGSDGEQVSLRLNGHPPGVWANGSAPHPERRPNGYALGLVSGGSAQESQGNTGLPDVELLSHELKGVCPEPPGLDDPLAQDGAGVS

Sequence of adenosine A3 receptor (P0DMS8 whole entry): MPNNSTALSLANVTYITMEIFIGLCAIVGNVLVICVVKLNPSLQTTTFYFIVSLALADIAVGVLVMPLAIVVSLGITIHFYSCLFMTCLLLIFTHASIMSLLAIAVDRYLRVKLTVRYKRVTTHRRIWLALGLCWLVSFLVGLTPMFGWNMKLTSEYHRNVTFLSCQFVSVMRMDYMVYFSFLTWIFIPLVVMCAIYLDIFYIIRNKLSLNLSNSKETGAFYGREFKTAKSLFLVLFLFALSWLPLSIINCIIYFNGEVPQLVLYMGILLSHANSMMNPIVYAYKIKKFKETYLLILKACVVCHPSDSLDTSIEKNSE
Sequence of adenosine A2B receptor (P29275 whole entry): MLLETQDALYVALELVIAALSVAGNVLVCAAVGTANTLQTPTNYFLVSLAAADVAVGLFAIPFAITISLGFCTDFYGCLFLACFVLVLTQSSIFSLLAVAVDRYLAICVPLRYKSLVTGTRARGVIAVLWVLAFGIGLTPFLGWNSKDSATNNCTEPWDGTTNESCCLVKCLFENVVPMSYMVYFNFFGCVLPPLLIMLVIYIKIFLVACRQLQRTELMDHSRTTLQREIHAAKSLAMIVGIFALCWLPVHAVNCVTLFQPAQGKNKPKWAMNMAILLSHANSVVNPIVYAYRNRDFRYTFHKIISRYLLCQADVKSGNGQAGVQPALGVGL
Sequence of adenosine A1 receptor (P30542 whole entry): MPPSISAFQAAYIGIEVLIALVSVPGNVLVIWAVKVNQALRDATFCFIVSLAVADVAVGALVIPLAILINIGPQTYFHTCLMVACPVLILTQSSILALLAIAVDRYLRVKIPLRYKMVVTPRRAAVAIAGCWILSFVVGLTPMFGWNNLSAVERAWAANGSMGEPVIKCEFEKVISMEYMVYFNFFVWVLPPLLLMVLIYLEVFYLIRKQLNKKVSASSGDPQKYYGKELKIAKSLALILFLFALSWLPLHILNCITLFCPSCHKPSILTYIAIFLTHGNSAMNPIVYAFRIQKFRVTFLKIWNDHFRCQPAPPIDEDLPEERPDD

| SMILES | Ratio (adenosine A2B receptor) | IC50 (adenosine A2B receptor) | IC50 (adenosine A1 receptor) | IC50 (adenosine A3 receptor) | IC50 (adenosine A2A receptor) |
| --- | --- | --- | --- | --- | --- |
| COc1ccc(CNC(=O)c2nc(N[C@@H](C)c3ccccn3)nc3cc(C)sc23)cn1 [Example Z469, (S)—N-((6-Methoxypyridin-3-yl)methyl)-6-methyl-2-((1-(pyridin-2-yl)ethyl)amino)thieno[3,2-d]pyrimidine-4-carboxamide] | 36.71 | 10 to 50 nM | > 500 nM | > 500 nM | > 500 nM |
| Cc1cc2nc(N[C@@H](C)c3cncc(F)c3)nc(C(=O)N3CC[C@H](NC(=O)OCc4ccccc4)C3)c2s1 [Example Z473, Benzyl ((S)-1-(2-(((S)-1-(5-fluoropyridin-3-yl)ethyl)amino)-6-methylthieno[3,2-d]pyrimidine-4-carbonyl)pyrrolidin-3-yl)carbamate] | 20.60 | 10 to 50 nM | > 500 nM | > 500 nM | > 500 nM |
| Cc1cc2nc(N[C@@H](C)c3cncc(F)c3)nc(C(=O)N3CC(CNC(=O)OC(C)(C)C)C3)c2s1 [Example Z475, tert-Butyl (S)-((1-(2-((1-(5-fluoropyridin-3-yl)ethyl)amino)-6-methylthieno[3,2-d]pyrimidine-4-carbonyl)azetidin-3-yl)methyl)carbamate] | 7.45 | 10 to 50 nM | > 500 nM | > 500 nM | 100 to 500 nM |
| COc1ccc(CNC(=O)c2nc(N[C@@H](C)c3ccccn3)nc3cc(C)sc23)cc1 [Example Z477, (S)—N-(4-Methoxybenzyl)-6-methyl-2-((1-(pyridin-2-yl)ethyl)amino)thieno[3,2-d]pyrimidine-4-carboxamide] | 9.73 | 10 to 50 nM | 50 to 100 nM | 50 to 100 nM | 100 to 500 nM |
| Cc1cc2nc(N[C@@H](C)c3cncc(F)c3)nc(C(=O)N3CC(N(C)C)C3)c2s1 [Example Z481, (S)-(3-(Dimethylamino)azetidin-1-yl)(2-((1-(5-fluoropyridin-3-yl)ethyl)amino)-6-methylthieno[3,2-d]pyrimidin-4-yl)methanone] | 111.93 | 10 to 50 nM | > 500 nM | > 500 nM | > 500 nM |
| Cc1cc2nc(N[C@@H](C)c3cncc(F)c3)nc(C(=O)NCCC3CN(C(=O)OC(C)(C)C)C3)c2s1 [Example Z485, tert-Butyl (S)-3-(2-(2-((1-(5-fluoropyridin-3-yl)ethyl)amino)-6-methylthieno[3,2-d]pyrimidine-4-carboxamido)ethyl)azetidine-1-carboxylate] | 8.16 | 10 to 50 nM | 100 to 500 nM | > 500 nM | 100 to 500 nM |
| CC(=O)Nc1ccc(CCNC(=O)c2nc(N[C@@H](C)c3cncc(F)c3)nc3cc(C)sc23)cc1 [Example Z488, (S)—N-(4-Acetamidophenethyl)-2-((1-(5-fluoropyridin-3-yl)ethyl)amino)-6-methylthieno[3,2-d]pyrimidine-4-carboxamide] | 147.08 | < 10 nM | > 500 nM | > 500 nM | > 500 nM |
| Cc1cc2nc(N[C@@H](C)c3cncc(F)c3)nc(C(=O)NCC[C@@H]3CCNC3)c2s1 [Example Z489, 2-(((S)-1-(5-Fluoropyridin-3-yl)ethyl)amino)-6-methyl-N-(2-((S)-pyrrolidin-3-yl)ethyl)thieno[3,2-d]pyrimidine-4-carboxamide] | 365.84 | 10 to 50 nM | > 500 nM | > 500 nM | > 500 nM |
| Cc1cc2nc(N[C@@H](C)c3cncc(F)c3)nc(C(=O)N3CC(CNC(=O)C(C)(C)C)C3)c2s1 [Example Z490, (S)—N-((1-(2-((1-(5-Fluoropyridin-3-yl)ethyl)amino)-6-methylthieno[3,2-d]pyrimidine-4-carbonyl)azetidin-3-yl)methyl)pivalamide] | 10.96 | 10 to 50 nM | > 500 nM | > 500 nM | 100 to 500 nM |
| Cc1cc2nc(N[C@@H](C)c3cncc(F)c3)nc(C(=O)N3CC[C@@H](NC(=O)OCc4ccccc4)C3)c2s1 [Example Z491, Benzyl ((R)-1-(2-(((S)-1-(5-fluoropyridin-3-yl)ethyl)amino)-6-methylthieno[3,2-d]pyrimidine-4-carbonyl)pyrrolidin-3-yl)carbamate] | 86.94 | 10 to 50 nM | > 500 nM | > 500 nM | > 500 nM |
| CCNC(=O)CC1CN(C(=O)c2nc(N[C@@H](C)c3cncc(F)c3)nc3cc(C)sc23)C1 [Example Z495, (S)—N-Ethyl-2-(1-(2-((1-(5-fluoropyridin-3-yl)ethyl)amino)-6-methylthieno[3,2-d]pyrimidine-4-carbonyl)azetidin-3-yl)acetamide] | 23.37 | < 10 nM | > 500 nM | 50 to 100 nM | 50 to 100 nM |
| Cc1cc2nc(N[C@@H](C)c3cncc(F)c3)nc(C(=O)NCCC3CCNCC3)c2s1 [Example Z496, (S)-2-((1-(5-Fluoropyridin-3-yl)ethyl)amino)-6-methyl-N-(2-(piperidin-4-yl)ethyl)thieno[3,2-d]pyrimidine-4-carboxamide] | 524.78 | 10 to 50 nM | > 500 nM | > 500 nM | > 500 nM |
| Cc1cc2nc(N[C@@H](C)c3cncc(F)c3)nc(C(=O)N3CC(C(N)=O)C3)c2s1 [Example Z504, (S)-1-(2-((1-(5-Fluoropyridin-3-yl)ethyl)amino)-6-methylthieno[3,2-d]pyrimidine-4-carbonyl)azetidine-3-carboxamide] | 287.41 | < 10 nM | > 500 nM | > 500 nM | > 500 nM |
| CCNC(=O)c1ccc(CCNC(=O)c2nc(N[C@@H](C)c3cncc(F)c3)nc3cc(C)sc23)cc1 [Example Z506, (S)—N-(4-(Ethylcarbamoyl)phenethyl)-2-((1-(5-fluoropyridin-3-yl)ethyl)amino)-6-methylthieno[3,2-d]pyrimidine-4-carboxamide] | 22.42 | 10 to 50 nM | > 500 nM | > 500 nM | > 500 nM |
| CCOC(=O)N(C)C1CN(C(=O)c2nc(N[C@@H](C)c3cncc(F)c3)nc3cc(C)sc23)C1 [Example Z507, Ethyl (S)-(1-(2-((1-(5-fluoropyridin-3-yl)ethyl)amino)-6-methylthieno[3,2-d]pyrimidine-4-carbonyl)azetidin-3-yl)(methyl)carbamate] | 5.66 | 10 to 50 nM | > 500 nM | > 500 nM | 50 to 100 nM |

Other lines, results leading:

| Ratio (adenosine A2B receptor) | IC50 (adenosine A2B receptor) | IC50 (adenosine A1 receptor) | IC50 (adenosine A3 receptor) | IC50 (adenosine A2A receptor) | SMILES |
| --- | --- | --- | --- | --- | --- |
| 5.27 | 10 to 50 nM | > 500 nM | > 500 nM | 100 to 500 nM | Cc1cc2nc(N[C@@H](C)c3ccccn3)nc(C(=O)N3CC(CNC(=O)OC(C)(C)C)C3)c2s1 [Example Z476, tert-Butyl (S)-((1-(6-methyl-2-((1-(pyridin-2-yl)ethyl)amino)thieno[3,2-d]pyrimidine-4-carbonyl)azetidin-3-yl)methyl)carbamate] |
| 167.42 | 10 to 50 nM | > 500 nM | > 500 nM | > 500 nM | Cc1cc2nc(N[C@@H](C)c3cncc(F)c3)nc(C(=O)N3CC(CN)C3)c2s1 [Example Z478, (S)-(3-(Aminomethyl)azetidin-1-yl)(2-((1-(5-fluoropyridin-3-yl)ethyl)amino)-6-methylthieno[3,2-d]pyrimidin-4-yl)methanone] |
| 96.36 | 10 to 50 nM | > 500 nM | > 500 nM | > 500 nM | Cc1cc2nc(N[C@@H](C)c3ccccn3)nc(C(=O)N3CC(CN)C3)c2s1 [Example Z479, (S)-(3-(Aminomethyl)azetidin-1-yl)(6-methyl-2-((1-(pyridin-2-yl)ethyl)amino)thieno[3,2-d]pyrimidin-4-yl)methanone] |
| 47.68 | 10 to 50 nM | > 500 nM | > 500 nM | > 500 nM | Cc1cc2nc(N[C@@H](C)c3ccccn3)nc(C(N)=O)c2s1 [Example Z480, (S)-6-Methyl-2-((1-(pyridin-2-yl)ethyl)amino)thieno[3,2-d]pyrimidine-4-carboxamide] |
| 30.60 | 10 to 50 nM | > 500 nM | > 500 nM | 100 to 500 nM | COC1(C)CN(C(=O)c2nc(N[C@@H](C)c3ccccn3)nc3cc(C)sc23)C1 [Example Z483, (S)-(3-Methoxy-3-methylazetidin-1-yl)(6-methyl-2-((1-(pyridin-2-yl)ethyl)amino)thieno[3,2-d]pyrimidin-4-yl)methanone] |
| 8.25 | 10 to 50 nM | > 500 nM | 10 to 50 nM | 100 to 500 nM | Cc1cc2nc(N[C@@H](C)c3ccccn3)nc(C(=O)NCc3nccs3)c2s1 [Example Z492, (S)-6-Methyl-2-((1-(pyridin-2-yl)ethyl)amino)-N-(thiazol-2-ylmethyl)thieno[3,2-d]pyrimidine-4-carboxamide] |
| 146.92 | < 10 nM | > 500 nM | > 500 nM | 100 to 500 nM | Cc1cc2nc(N[C@@H](C)c3cncc(F)c3)nc(C(=O)N3CC(CO)C3)c2s1 [Example Z494, (S)-(2-((1-(5-Fluoropyridin-3-yl)ethyl)amino)-6-methylthieno[3,2-d]pyrimidin-4-yl)(3-(hydroxymethyl)azetidin-1-yl)methanone] |

Reference: patent US11254686B1 (Corvus Pharmaceuticals, Inc., priority 2017, dated 2022)
